Source: BigSolDB 2.1

O=C(O)c1ccccc1Nc1cccc(C(F)(F)F)c1
solubility (mole fraction)
Conditions	in DMSO	in ethanol	in ethylene glycol	in isopropanol	in methanol	in n-butanol	in propylene glycol	in sec-butanol	in transcutol	in water
298.2 K	0.226	0.0681	0.00767	0.0962	0.0439	0.119	0.0126	0.121	0.193	5.83e-07
303.2 K	0.241	0.0747	0.00856	0.105	0.048	0.13	0.0139	0.133	0.211	8.01e-07
308.2 K	0.256	0.0857	0.00975	0.116	0.0531	0.142	0.0153	0.144	0.229	1.02e-06
313.2 K	0.27	0.098	0.0107	0.128	0.0577	0.157	0.0167	0.16	0.251	1.28e-06
318.2 K	0.286	0.112	0.012	0.144	0.0629	0.177	0.0181	0.179	0.278	1.6e-06

Conditions	solubility (mole fraction)
in PEG-400, 298.2 K	0.0337
in PEG-400, 303.2 K	0.04
in PEG-400, 308.2 K	0.0469
in PEG-400, 313.2 K	0.054
in PEG-400, 318.2 K	0.0616
